Results reported in patent publication US20260325533A1, “CDK INHIBITOR COMPOUNDS” (ALEKSIA THERAPEUTICS, INC., priority 2023, published 2026).
Like-named read-outs stand apart in the source and are kept apart here.

Experiments:
Format in all cases: biochemical
[1] = molecular target: CDK2/CCNE1 (Homo sapiens, UniProt P24941); assay: CDK2 homogeneous time-resolved fluorescence (HTRF) kinase assay
In short: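 3 nM CDK2/CCNE1 was preincubated with compound for 20 min at 23 °C in HEPES buffer (pH not stated), then reacted 60 min with 1 mM ATP and 50 nM ULight-4E-BP1 (Thr37/46) peptide. After EDTA stop, Eu-anti-phospho-4E-BP1 antibody (2 nM) was added for 60 min and TR-FRET read at 665 nm.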

[2] = molecular target: CDK6/CCND1 (Homo sapiens, UniProt Q00534); assay: CDK6 homogeneous time-resolved fluorescence (HTRF) kinase assay
In short: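 Enzyme pre-incubated 20 min at 23 °C with compound, then reacted 60 min at 23 °C with 1 mM ATP and 50 nM ULight-4E-BP1 (Thr37/46) peptide; 1 nM enzyme, 1% DMSO. EDTA-stopped, Eu-anti-phospho antibody TR-FRET read (665 nm or 665/615 ratio); 11-point half-log titration from 10 μM gave IC50.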

[3] = molecular target: CDK4/CCND3 (Homo sapiens, UniProt P11802); assay: CDK4 homogeneous time-resolved fluorescence (HTRF) kinase assay
In short: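 CDK4/CCND3 at 1.5 nM was preincubated with compound for 20 min at 23 °C, then reacted for 60 min with 1 mM ATP and 50 nM ULight-4E-BP1 (Thr37/46) peptide. The reaction was stopped with EDTA, and phosphorylation was read by HTRF with a Eu-anti-phospho antibody. IC50 values came from 11-point half-log titrations, typically from 10 μM.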

[4] = molecular target: CDK1/CCNB1 (Homo sapiens, UniProt P06493); assay: CDK1 homogeneous time-resolved fluorescence (HTRF) kinase assay
In short: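 0.5 nM CDK1/CCNB1 was preincubated 20 min at 23 °C with compound in HEPES pH-unspecified buffer (MgCl2, EGTA, DTT, Tween 20), then reacted 60 min with 1 mM ATP and 50 nM ULight-4E-BP1 (Thr37/46) peptide. EDTA-stopped reactions were detected with 2 nM Eu-anti-phospho antibody; IC50 from 11-point half-log titrations.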

[5] = CDK2/CCNE, <25 nM, read-out: CDK2/CCNE IC50 <25 nM
[6] = CDK1/CCNB, >250 nM marked x, read-out: CDK1/CCNB IC50 >250 nM
[7] = <25 nM, CDK2/CCNE, read-out: CDK2/CCNE IC50, <25 nM
[8] = 25-250 nM, CDK6/CCND, 1 mM ATP, read-out: CDK6/CCND IC50, 25-250 nM
[9] = 25-250 nM, CDK4/CCND, read-out: CDK4/CCND IC50, 25-250 nM
[10] = >250 nM, CDK1/CCNB, read-out: CDK1/CCNB IC50 >250 nM
[11] = >250 nM, CDK6/CCND, 1 mM ATP, read-out: CDK6/CCND IC50, >250 nM
[12] = >250 nM, CDK4/CCND, read-out: CDK4/CCND IC50, >250 nM
[13] = 25-250 nM, CDK2/CCNE, read-out: CDK2/CCNE IC50, 25-250 nM

Sequence of CDK1/CCNB1 (P06493 whole entry): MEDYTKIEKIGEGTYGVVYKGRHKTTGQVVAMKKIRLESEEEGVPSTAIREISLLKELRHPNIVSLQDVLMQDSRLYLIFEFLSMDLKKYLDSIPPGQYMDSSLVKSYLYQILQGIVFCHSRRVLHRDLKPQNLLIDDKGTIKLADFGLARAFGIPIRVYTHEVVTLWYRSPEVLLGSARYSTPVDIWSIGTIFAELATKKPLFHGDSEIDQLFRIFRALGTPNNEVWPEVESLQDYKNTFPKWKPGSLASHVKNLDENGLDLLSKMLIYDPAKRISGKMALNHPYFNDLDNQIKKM
Sequence of CDK1/CCNB1 (P14635 whole entry partner): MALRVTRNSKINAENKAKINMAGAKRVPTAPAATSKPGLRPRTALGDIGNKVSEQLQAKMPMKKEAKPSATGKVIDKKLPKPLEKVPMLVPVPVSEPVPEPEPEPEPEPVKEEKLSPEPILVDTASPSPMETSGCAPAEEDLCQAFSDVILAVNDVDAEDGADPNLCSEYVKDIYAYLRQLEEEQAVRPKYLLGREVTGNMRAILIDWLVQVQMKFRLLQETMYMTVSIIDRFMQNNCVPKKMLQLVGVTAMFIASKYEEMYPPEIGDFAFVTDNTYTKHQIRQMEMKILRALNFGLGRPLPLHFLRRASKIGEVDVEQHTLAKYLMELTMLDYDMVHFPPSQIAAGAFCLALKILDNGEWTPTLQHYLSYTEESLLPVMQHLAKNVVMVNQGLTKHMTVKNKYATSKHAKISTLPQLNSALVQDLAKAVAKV
Sequence of CDK6/CCND1 (Q00534 whole entry): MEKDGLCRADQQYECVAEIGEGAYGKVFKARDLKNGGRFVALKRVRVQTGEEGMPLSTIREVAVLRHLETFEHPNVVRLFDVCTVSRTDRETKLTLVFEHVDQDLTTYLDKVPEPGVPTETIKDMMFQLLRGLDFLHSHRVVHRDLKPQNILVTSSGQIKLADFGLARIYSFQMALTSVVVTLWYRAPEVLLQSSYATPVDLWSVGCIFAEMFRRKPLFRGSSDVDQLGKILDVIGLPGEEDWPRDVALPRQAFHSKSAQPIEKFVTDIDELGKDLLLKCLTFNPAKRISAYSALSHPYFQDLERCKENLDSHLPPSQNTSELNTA
Sequence of CDK6/CCND1 (P24385 whole entry partner): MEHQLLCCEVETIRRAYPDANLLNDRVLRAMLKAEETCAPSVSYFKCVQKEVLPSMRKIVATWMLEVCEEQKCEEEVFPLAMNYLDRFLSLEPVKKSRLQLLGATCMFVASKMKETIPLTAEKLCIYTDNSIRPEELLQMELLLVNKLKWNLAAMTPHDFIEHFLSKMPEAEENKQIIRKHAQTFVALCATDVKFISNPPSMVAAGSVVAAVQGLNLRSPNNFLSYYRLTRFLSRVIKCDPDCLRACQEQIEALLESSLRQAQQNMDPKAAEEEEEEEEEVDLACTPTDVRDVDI
Sequence of CDK4/CCND3 (P11802 whole entry): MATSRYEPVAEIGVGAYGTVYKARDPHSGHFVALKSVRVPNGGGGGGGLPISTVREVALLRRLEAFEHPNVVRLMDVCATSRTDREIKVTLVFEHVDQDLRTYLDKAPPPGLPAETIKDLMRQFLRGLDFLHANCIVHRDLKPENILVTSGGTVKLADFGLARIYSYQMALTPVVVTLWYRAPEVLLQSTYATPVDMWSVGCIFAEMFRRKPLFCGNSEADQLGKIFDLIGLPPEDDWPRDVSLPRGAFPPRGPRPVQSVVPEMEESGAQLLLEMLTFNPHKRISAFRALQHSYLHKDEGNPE
Sequence of CDK4/CCND3 (P30281 whole entry partner): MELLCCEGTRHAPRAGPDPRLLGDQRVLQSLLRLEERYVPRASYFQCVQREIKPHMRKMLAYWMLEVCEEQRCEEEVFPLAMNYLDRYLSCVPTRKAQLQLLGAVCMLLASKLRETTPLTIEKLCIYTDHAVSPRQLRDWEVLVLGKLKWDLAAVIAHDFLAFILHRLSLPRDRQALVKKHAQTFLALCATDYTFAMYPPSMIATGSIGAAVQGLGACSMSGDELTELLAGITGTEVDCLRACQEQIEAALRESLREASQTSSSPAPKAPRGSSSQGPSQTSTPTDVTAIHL

| Structure (SMILES) | IC50 [1, 7] [nM] | IC50 [4, 10] [nM] | IC50 [2, 11] [nM] | IC50 [3, 12] [nM] | further results |
| --- | --- | --- | --- | --- | --- |
| CS(=O)(=O)N1CCC(Nc2cc3c(N4CCC(CO)CC4)nccc3cn2)CC1 [Ex 41, (1-(7-((1-(methylsulfonyl)piperidin-4-yl)amino)-2,6-naphthyridin-1-yl)piperidin-4-yl)methanol] |  |  |  |  | IC50 [1, 5]: < 25 nM; IC50 ([2]; CDK6/CCND, <25 nM, read-out: CDK6/CCND IC50 <25 nM): < 25 nM; IC50 ([3]; CDK4/CCND, <25 nM, read-out: CDK4/CCND IC50 <25 nM): < 25 nM; IC50 [4, 6]: > 250 nM |
| Cc1c(-c2nccc3cnc(Nc4ccc5c(c4)CCS5(=O)=O)cc23)ccc2c1cnn2CC(C)(C)O [Ex 915, 5-((5-(1-(2-hydroxy-2-methylpropyl)-4-methyl-1H-indazol-5-yl)-2,6-naphthyridin-3-yl)amino)-2,3-dihydrobenzo[b]thiophene 1,1-dioxide] | < 25 | > 250 |  |  | IC50 [2, 8]: 25 to 250 nM; IC50 [3, 9]: 25 to 250 nM |
| Cc1c(-c2nccc3cnc(Nc4ccc(S(=O)(=O)Nc5nccc(N6CCN(C)CC6)n5)cc4)cc23)ccc2c1cnn2CC(O)(C(F)(F)F)C(F)(F)F [Ex 756, 4-((5-(4-methyl-1-(3,3,3-trifluoro-2-hydroxy-2-(trifluoromethyl)propyl)-1H-indazol-5-yl)-2,6-naphthyridin-3-yl)amino)-N-(4-(4-methylpiperazin-1-yl)pyrimidin-2-yl)benzenesulfonamide] | < 25 | > 250 | > 250 | > 250 |  |
| CS(=O)(=O)N1CCC(Nc2cc3c(N4CCCC(O)C4)nccc3cn2)CC1 (racemic) [Ex 42, 1-(7-((1-(methylsulfonyl)piperidin-4-yl)amino)-2,6-naphthyridin-1-yl)piperidin-3-ol] |  |  |  |  | IC50 [1, 5]: < 25 nM; IC50 ([2]; CDK6/CCND, 25-250 nM marked x, read-out: CDK6/CCND IC50 25-250 nM): 25 to 250 nM; IC50 ([3]; CDK4/CCND, 25-250 nM marked x, read-out: CDK4/CCND IC50 25-250 nM): 25 to 250 nM; IC50 ([4]; CDK1/CCNB, 25-250 nM marked x, read-out: CDK1/CCNB IC50 25-250 nM): 25 to 250 nM |
| COc1nc(S(C)(=O)=O)ccc1Nc1cc2c(-c3ccc4c(cnn4CC(C)(C)O)c3C)nccc2cn1 [Ex 766, 1-(5-(7-((2-methoxy-6-(methylsulfonyl)pyridin-3-yl)amino)-2,6-naphthyridin-1-yl)-4-methyl-1H-indazol-1-yl)-2-methylpropan-2-ol] |  | > 250 | > 250 | > 250 | IC50 [1, 13]: 25 to 250 nM |
| COc1cnc(NS(=O)(=O)c2ccc(Nc3cc4c(-c5ccc6c(cnn6CC(O)(C(F)(F)F)C(F)(F)F)c5C)nccc4cn3)cc2)cc1N1CCOCC1 [Example 700, N-(5-methoxy-4-morpholinopyridin-2-yl)-4-((5-(4-methyl-1-(3,3,3-trifluoro-2-hydroxy-2-(trifluoromethyl)propyl)-1H-indazol-5-yl)-2,6-naphthyridin-3-yl)amino)benzenesulfonamide] | < 25 | > 250 | > 250 | > 250 |  |
| CCOc1ccc(C#Cc2nccc3cnc(Nc4ccc(S(C)(=O)=O)cc4)cc23)cn1 [Ex 869, 5-((6-ethoxypyridin-3-yl)ethynyl)-N-(4-(methylsulfonyl)phenyl)-2,6-naphthyridin-3-amine] |  | > 250 | > 250 | > 250 | IC50 [1, 13]: 25 to 250 nM |
| Cc1c(-c2nccc3cnc(Nc4ccc(S(=O)(=O)Nc5nccc(N6CCOCC6)n5)cc4)cc23)ccc2c1cnn2CC(C)(C)O [Ex 893, 4-((5-(1-(2-hydroxy-2-methylpropyl)-4-methyl-1H-indazol-5-yl)-2,6-naphthyridin-3-yl)amino)-N-(4-morpholinopyrimidin-2-yl)benzenesulfonamide] | < 25 | > 250 | > 250 | > 250 |  |
| Cc1c(-c2c(C#N)ccc3cnc(Nc4ccc(S(C)(=O)=O)cc4)nc23)ccc2nn(C)cc12 [Example 964, 8-(2,4-dimethyl-2H-indazol-5-yl)-2-((4-(methylsulfonyl)phenyl)amino) quinazoline-7-carbonitrile] |  |  |  |  | IC50 ([1]; 3 nM CDK2/CCNE1, 1 mM ATP, read-out: CDK2/CCNE IC50 <25 nM): < 25 nM; IC50 ([2]; 1 nM CDK6/CCND1, 1 mM ATP, read-out: CDK6/CCND IC50 25-250 nM): 25 to 250 nM; IC50 ([3]; 1.5 nM CDK4/CCND3, 1 mM ATP, read-out: CDK4/CCND IC50 25-250 nM): 25 to 250 nM; IC50 ([4]; 0.5 nM CDK1/CCNB1, 1 mM ATP, read-out: CDK1/CCNB IC50 25-250 nM): 25 to 250 nM |
| CCNS(=O)(=O)c1ccc(Nc2cc3c(-c4ccc5c(cnn5CC(O)(C(F)(F)F)C(F)(F)F)c4C)nccc3cn2)cc1 [Ex 695, N-ethyl-4-((5-(4-methyl-1-(3,3,3-trifluoro-2-hydroxy-2-(trifluoromethyl)propyl)-1H-indazol-5-yl)-2,6-naphthyridin-3-yl)amino)benzenesulfonamide] | < 25 | > 250 | > 250 | > 250 |  |
| Cc1c(-c2nccc3cnc(Nc4ccc(S(=O)(=O)N[C@@H](C)CCO)cc4)cc23)ccc2c1cnn2CC(C)(C)O [Ex 746, (S)-4-((5-(1-(2-hydroxy-2-methylpropyl)-4-methyl-1H-indazol-5-yl)-2,6-naphthyridin-3-yl)amino)-N-(4-hydroxybutan-2-yl)benzenesulfonamide] | < 25 | > 250 |  |  | IC50 [2, 8]: 25 to 250 nM; IC50 [3, 9]: 25 to 250 nM |
| Cc1c(-c2nccc3cnc(Nc4ccc(S(=O)(=O)NCc5ccccc5)cc4)cc23)ccc2c1cnn2CC(C)(C)O [Ex 730, N-benzyl-4-((5-(1-(2-hydroxy-2-methylpropyl)-4-methyl-1H-indazol-5-yl)-2,6-naphthyridin-3-yl)amino)benzenesulfonamide] | < 25 | > 250 | > 250 | > 250 |  |
| CC#Cc1nccc2cnc(Nc3ccc(S(=O)(=O)Nc4ncc(C)cn4)cc3)cc12 [Ex 889, N-(5-methylpyrimidin-2-yl)-4-((5-(prop-1-yn-1-yl)-2,6-naphthyridin-3-yl)amino)benzenesulfonamide] |  | > 250 | > 250 | > 250 | IC50 [1, 13]: 25 to 250 nM |
| Cc1c(-c2nccc3cnc(Nc4ccc(S(C)(=O)=O)cc4)cc23)ccc2c1cnn2C1CCN(C)CC1 [Ex 242, 5-(4-methyl-1-(1-methylpiperidin-4-yl)-1H-indazol-5-yl)-N-(4-(methylsulfonyl)phenyl)-2,6-naphthyridin-3-amine] |  |  |  |  | IC50 ([1]; CDK2/CCNE, 25-250 nM marked x, read-out: CDK2/CCNE IC50 25-250 nM): 25 to 250 nM; IC50 ([2]; CDK6/CCND, >250 nM marked x, read-out: CDK6/CCND IC50 >250 nM): > 250 nM; IC50 ([3]; CDK4/CCND, >250 nM marked x, read-out: CDK4/CCND IC50 >250 nM): > 250 nM; IC50 [4, 6]: > 250 nM |
| Cc1c(-c2nccc3cnc(Nc4ccc(S(=O)(=O)NC5CCOCC5)cc4)cc23)ccc2c1cnn2CC(C)(C)O [Ex 793, 4-((5-(1-(2-hydroxy-2-methylpropyl)-4-methyl-1H-indazol-5-yl)-2,6-naphthyridin-3-yl)amino)-N-(tetrahydro-2H-pyran-4-yl)benzenesulfonamide] | < 25 | > 250 |  |  | IC50 [2, 8]: 25 to 250 nM; IC50 [3, 9]: 25 to 250 nM |
| CC(CCO)N1CCc2cc(-c3nccc4cnc(Nc5ccc(S(C)(=O)=O)cc5)cc34)ccc2C1 (racemic) [Ex 619, 3-(6-(7-((4-(methylsulfonyl)phenyl)amino)-2,6-naphthyridin-1-yl)-3,4-dihydroisoquinolin-2(1H)-yl)butan-1-ol] |  |  |  |  | IC50 ([1]; CDK2/CCNE, x = IC50 <25 nM, read-out: CDK2/CCNE IC50 (<25 nM)): < 25 nM; IC50 ([2]; CDK6/CCND, x = IC50 25-250 nM, read-out: CDK6/CCND IC50 (25-250 nM)): 25 to 250 nM; IC50 ([3]; CDK4/CCND, x = IC50 >250 nM, read-out: CDK4/CCND IC50 (>250 nM column)): > 250 nM; IC50 ([4]; CDK1/CCNB, x = IC50 >250 nM, read-out: CDK1/CCNB IC50 (>250 nM column)): > 250 nM |
| Cc1c(-c2nccc3cnc(Nc4ccc(S(C)(=O)=O)cc4F)cc23)ccc2c1cnn2CC(C)(C)O [Ex 846, 1-(5-(7-((2-fluoro-4-(methylsulfonyl)phenyl)amino)-2,6-naphthyridin-1-yl)-4-methyl-1H-indazol-1-yl)-2-methylpropan-2-ol] | < 25 | > 250 | > 250 | > 250 |  |
